The text below walks through data of patent US8691945B2, “Antimicrobial peptides” (Singapore Health Services Pte Ltd., priority 2006, dated 2014).

Data set [1] relates to Staphylococcus aureus ATCC 25923. In words: Antimicrobial assay, bacteria growth in liquid broth with serially diluted peptides. The data set is classed as cell-based. The conditions noted are these: Staph aureus, ATCC25923; for vLD50: concentration of peptide at which 50% of the viable cells are killed. How it is done: (§1) The bacteria assayed included Escherichia coli ATCC 25922, Staphylococcus aureus ATCC 25923, Pseudomonas aeruginosa ATCC 27853, Bacillus cereus NCTC 2599. Sterile flat-bottom, 96-well tissue culture plates (92096, TPP) was used for assay. The inner surface of microplate cover was treated with 0.05% Triton X-100 in 20% ethanol to prevent condensation of water droplets. Growth kinetics in 96-well microplates was monitored (as turbidity) with the Tecan Genios Plus microplate reader using software Magellan v5.03 and 620-nm filter. Seed culture was monitored on Pharmacia Biotech Ultrospec 2000 UV/Visible spectrophotometer using 600-nm wavelength. Antibacterial activities of the analogs and wild-type hBD3 were determined for E. coli, B. cereus, S. aureus and P. aeruginosa by measuring bacteria growth in liquid broth in the presence of the serially diluted peptides. The LD50 is the concentration of peptide at which 50% of the viable cells are killed.
(§2) The bacteria were grown to mid-logarithmic phase in Mueller-Hinton Broth (MHB) from overnight plate culture. The cell suspension was diluted to OD 0.1 (600 nm, Pharmacia Biotech Ultropec 2000 UV/Visible spectrophotometer) in mixture of 10 mM Pot Phos buffer/MHB (equal volume (PMH). This cell suspension gave a concentration of 10^7 CFU/ml. Colony count was done for confirmation. A 10-fold dilution series of this suspension ranging from 10^7 to 10^1 CFU/ml was made in PMH (in sextuplicate for Staphylococcus aureus ATCC 25923 and Bacillus cereus NCTC 2599; in quadruplicate for Escherichia coli ATCC 25922 and in triplicate for Pseudomonas aeruginosa ATCC 27853). The final volume per well was 200 ul. For negative control well, 200 ul of uninoculated PMH was added.
(§3) LD50, LD90, LD99 and LD99.9 of wild-type hBD3 and its linear analogs were determined against two Gram-negative (E. Coli and P. aeruginosa) and two Gram-positive (B. cereus, S. aureus) (Table 3). See also FIGS. 7(A, B, C and D).

The subject of data set [2] is Bacillus cereus NCTC 2599. The data set is described as above. The data set is classed as cell-based. Conditions: B cereus, NCTC2599; for vLD50: concentration of peptide at which 50% of the viable cells are killed. How it is done: as §1, §2, §3
The subject of data set [3] is Pseudomonas aeruginosa ATCC 27853. The data set is described as above. The data set is classed as cell-based. The conditions noted are these: P aeruginosa, ATCC27853; for vLD50: concentration of peptide at which 50% of the viable cells are killed. As to the method: as §1, §2, §3
The test system of data set [4] is Escherichia coli ATCC 25922. Described as above. The conditions noted are these: E coli, ATCC25922; for vLD50: concentration of peptide at which 50% of the viable cells are killed. The format is cell-based. As to the method: as §1, §2, §3
Data set [5] has as its system E. coli, B. cereus, S. aureus and P. aeruginosa. The experiment in a line: Antimicrobial assay, statements pooled over the four pathogens. The format is cell-based. Conditions: in comparison with hBD3. How it is done:
as §1
The bacteria were grown to mid-logarithmic phase in Mueller-Hinton Broth (MHB) from overnight plate culture. […]
LD50, LD90, LD99 and LD99.9 of wild-type hBD3 and its linear analogs were determined against two Gram-negative (E. Coli and P. aeruginosa) and two Gram-positive (B. cereus, S. aureus) (Table 3). […]

Data set [6] is described as follows: Molecular hydrophobicity by HPLC-MS retention time, full-length analogs. The arrangement: unit: min. The data set is classed as physicochemical. The conditions noted are these: average of three tries, one value per charged fragment. As to the method:
Molecular hydrophobicity of peptides was measured by HPLC-MS at the same experimental conditions, e.g., the same peptide concentration (500 or 100 μg/ml), loading (5 μl) and flow rate of 0.2 ml/min in the same gradient 18-38% of eluant A in 32 min and relatively compared in term of retention time (Rt) of product peak.
In comparison with native hBD3, this series of linear analogs of hBD3 with full-length and 11 net positive charge are structurally homogenous as they are designed and synthesized only by uniform replacement of six bridging cysteine residues in hBD3 with other six residues with different hydrophobicity, e.g., A, S, C(Acm), F, Y and W. These linear analogs provide a well-defined model for testing the effect of overall hydrophobicity, second structure and linearity/or constraint imposed by three disulfide bridges on antibacterial, cytotoxicity and hemolytic activities. We have measured the relative molecular hydrophobicity by HPLC-MS in term of retention time (tR) at 500 ug/ml and 100 ug/ml (Table 2) and overall hydrophobicity were calculated based on the hydrophobicity scale of Wilmley and White and Hopp-Woods Scale, respectively. The change trend of overall hydrophobicity, which is calculated based on two different scale, generally fits well, and the HPLC result matches the calculations very well. The general order for the relative molecular hydrophobicity of peptides is as following: W6>F6>Y6>native hBD3>A6>S6>C(Acm)6. […] In the following sections, we will discuss the effect of overall hydrophobicity of peptide on biological activities.

The nature of data set [7]: Molecular hydrophobicity by RP-HPLC-MS retention time, C-terminus analogs. The format is physicochemical. The conditions noted are these: 1 mg/ml; gradient 2-15.5% in 30 mins then 15.5-31% in 3 mins of eluent B (ACN). As to the method: The overall molecular hydrophobicity of the C-terminus hBD3 analogs were measured by RP-HPLC-MS in terms of retention time at 1 mg/ml (Table 4 and FIG. 14). RP-HPLC is an approach that is commonly employed for such comparisons of peptides or amino acid side chains among antibacterial peptides. Since the stationary phase of C18-modified silica is hydrophobic and the mobile phase (water-acetonitrile) is hydrophilic, longer retention times should be correlated with higher hydrophobicity. The measured order for the molecular hydrophobicity of the peptides is as follows: W2>F2>L2>I2>Y2>V2>C2>H2.

Where no end group is shown, it is not given here. The star is where a group is joined. Acm = CC(=O)NC* Some results are limits rather than exact numbers.

Take “GIINTLQKYYC(Acm)RVRGGRC(Acm)AVLSC(Acm)LPKEEQIGKC(Acm)STRGRKC(Acm)C(Acm)RRKK-OH [C(Acm)6, GIINTLQKYY C(Acm)6RVRGGR C(Acm)6AVLS C(Acm)6LPKEEQIGK C(Acm)6STRGRK C(Acm)6C(Acm)6RRKK]”: the vLD90 in data set [1] came to 46.8 µg/mL; in data set [2], 28.3 µg/mL; in data set [3] it was 21.7 µg/mL; in data set [4], 23.8 µg/mL. Besides, the vLD99 in data set [1] worked out at 91 µg/mL; in data set [2], 47.8 µg/mL; in data set [3] it was 24.7 µg/mL; in data set [4] it was 24.9 µg/mL. Besides, the vLD99.9 is more than 100 µg/mL in data set [1], 49.8 µg/mL in data set [2], 25 µg/mL in data set [3] and 42 µg/mL in data set [4]. Moreover, the vLD50 in data set [1] stood at 25 µg/mL; in data set [2] it was 19.6 µg/mL; in data set [3], 11.2 µg/mL; in data set [4], 18.7 µg/mL. In addition, the “antibacterial potency in words” value in data set [5] was “relatively less potency”. Further, the “Relative hydrophobicity in term of retention time (Rt) in HPLC-MS, Average” value in data set [6] (100 ug/ml) was found to be 20.94; in data set [6] (500 ug/ml, fragment m/z 799.3) it was 20.12; in data set [6] (500 ug/ml, fragment m/z 932.4) it was 20.15; in data set [6] (500 ug/ml, fragment m/z 1118.8) it was 20.11.

Consider “RGRKIIRRKK (10 aa hBD3 derived peptide (C terminus), C replaced with I) [Peptide I2, 10-residue C-terminus fragment analog of hBD3]”, for which, in data set [7], the “Overall hydrophobicity in terms of ACN % of peak” value is given as 11.96% and the “Overall hydrophobicity in terms of Retention time (UV peak)” value (“Overall hydrophobicity … (UV peak)” for short) is 22.13 min.

For “RGRKFFRRKK (10 aa hBD3 derived peptide (C terminus), C replaced with F) [Peptide F2, 10-residue C-terminus fragment analog of hBD3]”, in data set [7], the “Overall hydrophobicity in terms of ACN % of peak” value turned out to be 14.78% and the “Overall hydrophobicity … (UV peak)” value came to 28.41 min.

As to “RGRKC(Acm)C(Acm)RRKK [Peptide C2, 10-residue C-terminus fragment analog of hBD3]”, in data set [7], the “Overall hydrophobicity in terms of ACN % of peak” value is given as 9.67% and the “Overall hydrophobicity … (UV peak)” value is 17.05 min.

Regarding “GIINTLQKYYCRVRGGRCAVLSCLPKEEQIGKCSTRGRKCCRRKK (disulfide (positions not given here); also: three disulfide bonds, pairing not given here; listed as Homo sapiens) [whbd3, wild type human β-defensin 3 with three disulfide bonds, used as control, reference compound]”, the vLD90 in data set [1] is 10.7 µg/mL; in data set [2] it was 5.8 µg/mL; in data set [3], 5.7 µg/mL; in data set [4] it was 11.8 µg/mL. Moreover, the vLD99 in data set [1] stood at 12.2 µg/mL; in data set [2], 6.2 µg/mL; in data set [3], 11.4 µg/mL; in data set [4], 12.4 µg/mL. Also, the vLD99.9 in data set [1] was 12.5 µg/mL; in data set [2] it was 6.2 µg/mL; in data set [3] it was 12.4 µg/mL; in data set [4], 12.5 µg/mL. The vLD50 in data set [1] was 5.5 µg/mL; in data set [2], 3.9 µg/mL; in data set [3], 2.7 µg/mL; in data set [4] it was 9.3 µg/mL. The “Relative hydrophobicity in term of retention time (Rt) in HPLC-MS, Average” value is given as 24.28 in data set [6] (100 ug/ml, listed as Wild-type hBD3, fragment m/z 860.2); 24.29 in data set [6] (100 ug/ml, listed as Wild-type hBD3, fragment m/z 1032.2); 23.24 in data set [6] (500 ug/ml, listed as Wild-type hBD3, fragment m/z 860.2); 23.28 in data set [6] (500 ug/ml, listed as Wild-type hBD3, fragment m/z 1032.2).

Regarding “RGRKHHRRKK (10 aa hBD3 derived peptide (C terminus), C replaced with H) [Peptide H2, 10-residue C-terminus fragment analog of hBD3]”, in data set [7], the “Overall hydrophobicity in terms of ACN % of peak” value amounted to 7.15% and the “Overall hydrophobicity … (UV peak)” value was 11.45 min.
